Values joined by “and” are separate entries in the source; they are usually repeats but may differ in a detail not shown here. Identical values can stand only once.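 Method: 48-hour compound exposure of cells in 96-well plates, five concentrations, linear interpolation of endpoints. Here, GI50 denotes the concentration required for 50% inhibition of growth. Definition used: TGI = concentration required for complete inhibition of growth.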
Experiments:
Test in all cases: DTP human tumour cell line panel, 48 h
ACHN renal = system: ACHN renal
CCRF-CEM leukemia = system: CCRF-CEM leukemia
DU-145 prostate = system: DU-145 prostate
HCC-2998 colon = system: HCC-2998 colon
HT29 colon = system: HT29 colon
LOX IMVI melanoma = system: LOX IMVI melanoma
MDA-MB-435 = system: MDA-MB-435
OVCAR-4 ovarian = system: OVCAR-4 ovarian
SF-295 CNS = system: SF-295 CNS
SK-MEL-5 melanoma = system: SK-MEL-5 melanoma

SMILES	GI50 (ACHN renal) [µM]	TGI (ACHN renal)	GI50 (CCRF-CEM leukemia) [µM]	TGI (CCRF-CEM leukemia) [µM]	GI50 (DU-145 prostate) [µM]	TGI (DU-145 prostate)	GI50 (HCC-2998 colon) [µM]	TGI (HCC-2998 colon) [µM]	GI50 (HT29 colon) [µM]	TGI (HT29 colon) [µM]	GI50 (LOX IMVI melanoma) [µM]	TGI (LOX IMVI melanoma)	GI50 (MDA-MB-435) [µM]	TGI (MDA-MB-435) [µM]	GI50 (OVCAR-4 ovarian)	TGI (OVCAR-4 ovarian)	GI50 (SF-295 CNS) [µM]	TGI (SF-295 CNS) [µM]	GI50 (SK-MEL-5 melanoma) [µM]	TGI (SK-MEL-5 melanoma) [µM]
CCOC(=O)[C@@H](N)CCC(=O)N[C@@H](CSCc1ccccc1)C(=O)N[C@@H](C(=O)OCC)c1ccccc1	18.6	34.8 µM	21.8	> 67.7	38.3	> 100 µM	16.7	32.2	16.6	33.6	16.7	32.1 µM	16.5	32.4	27.5 µM	> 57.1 µM	18.3	40.2	14.2	27.5
CN(C)C(=O)c1cc2cnc(Nc3ccc(-c4csc5c(=S)cc(N6CCOCC6)oc45)cc3)nc2n1C1CCCC1	0.377	> 50 µM	0.274	> 9.84	0.774	> 50 µM	0.932	> 50	0.515	> 50	0.355	2.54 µM	0.687	> 50	1.03 µM	> 50 µM	0.672	> 13.5	0.715	2.43
COc1cc(/C=C/c2cc(/C=C/c3ccc(O)c(OC)c3)n(C(=O)Nc3ccc(F)c(Cl)c3)n2)ccc1O	0.141	7.49 µM	0.131	> 100	0.419	1.55 µM	0.639	3.71	1.31	4.26	0.0792	1.85 µM	0.0223	0.102	0.721 µM	5.47 µM	0.544	2.6	0.243	1.37
NCC1Nc2ccccc2[C@@H](O)C1O (stereo partly drawn)		> 100 µM		> 100		> 100 µM		> 100		> 100		> 100 µM		> 100		> 100 µM		> 100		> 100
CCCCCCCC/C=C/CCCCCCCC(=O)OC[C@H]1O[C@@H](n2ccc(N)nc2=O)C(F)(F)[C@@H]1O	< 0.01	6.07 µM	< 0.0158	2.09	< 0.019	> 46.2 µM	17.5	> 100	0.097	> 100	0.0418	> 35.9 µM	< 0.0266	> 100	> 100 µM	> 100 µM	0.0242	0.555	0.0327	> 100
NP(=O)(Oc1c2occc2cc2ccc(=O)oc12)N(CCCl)CCCl (stereo not drawn)		> 100 µM		> 100		> 100 µM		> 100		> 100		> 100 µM		> 100		> 100 µM		> 100		> 100
Oc1ccccc1C(Sc1nc2ccccc2s1)Sc1nc2ccccc2s1		> 100 µM		> 100		> 100 µM		> 100		> 100		> 100 µM		> 100		> 100 µM		> 100		> 100
COc1ccc(Cn2cc3c(c2-c2ccccc2)CC(C)(C)c2cnoc2-3)cc1	5.06	> 100 µM	2.47	> 100	1.78	7.5 µM	2.91	> 100	0.95	7.53	3.55	> 100 µM	0.279	1.01	5.23 µM	> 100 µM	0.732	11.6	1.6	9.61
COc1nc2ccccc2cc1-c1nc2c(cnn2-c2ccc(Br)cc2)c(=O)[nH]1	0.0345	> 50 µM	0.0238	> 31.8	0.0344	13.8 µM	0.587	> 50	0.0191	> 50	0.0276	> 50 µM	0.00957	0.024		> 50 µM	0.0195	1.62	0.0293	
COc1cc2c(c(OC)c1OC)-c1ccc(OC)c(=O)cc1[C@@H](NC(=O)c1ccccc1)CC2	0.104	30 µM and > 100 µM		> 100	< 0.003	0.0329 µM and 0.237 µM	< 0.003		0.00658		0.0105	30 µM and 53.4 µM	< 0.003	< 0.003	28.1 µM and 13.4 µM	30 µM and > 100 µM	0.00623		0.00569	
N=C1C(c2nc3ccccc3s2)=C(O)CN1c1cc(C(F)(F)F)ccc1Cl	21.2	> 100 µM	21.3	> 100	25.8	> 100 µM	2.73	16.3	25.8	> 100	22.7	> 100 µM	4.14	36.1	> 100 µM	> 100 µM	16.2	> 100	6.61	46.7
N#CC(NNC(=O)Cc1ccccc1)c1c(O)ccc2ccccc12 (stereo not drawn)		20.2 µM		26.9		> 63.2 µM		45.4		62.1		14.3 µM		84.1		51 µM		40.2		15.7

Source: PubChem BioAssay (NCI)
